Legend:
[1] = test system: IL-6; assay: Secretion level of IL-6 in PHA-activated PBMC culture supernatants; type: cell-based, human; conditions: 5 μg/ml PHA, 0.01-10 μM, 48 hours
Experimental: (§1) Gradient centrifugation was used to extract PBMC cells from peripheral blood of healthy people. The PBMC cells were activated with 5 μg/ml PHA (Sigma), and treated with different concentrations of compounds (0, 0.01, 0.1, 1, 3, 10 μM). After 48 hours, the cells and culture supernatants were collected, respectively. Flow cytometry was used to detect the expression of immune checkpoints, PD-1, Tim-3 and Lag-3 on cell surface, and to detect the secretion level of various cytokines (IL-6, IL-10 and TNF-α) in the cell culture supernatants.

[2] = test system: TNF-α; assay: Secretion level of TNF-α in PHA-activated PBMC culture supernatants; type: cell-based, human; conditions: 5 μg/ml PHA, 0.01-10 μM, 48 hours
Experimental: as §1

[3] = test system: Lag-3; assay: Expression of immune checkpoint Lag-3 on cell surface of PHA-activated PBMC (flow cytometry); type: cell-based, human; conditions: 5 μg/ml PHA, 0.01-10 μM, 48 hours
Experimental: as §1

[4] = target: MNK1 (Homo sapiens, UniProt Q9BUB5); assay: MNK biological enzyme assay (HTRF kinase assay), MNK1; type: biochemical; design: purchased ThermoFisher PV6023; conditions: 3 ng/ul MNK1, 1 μM STK1 peptide, 100 μM ATP
Sequence of MNK1 (Q9BUB5 whole entry): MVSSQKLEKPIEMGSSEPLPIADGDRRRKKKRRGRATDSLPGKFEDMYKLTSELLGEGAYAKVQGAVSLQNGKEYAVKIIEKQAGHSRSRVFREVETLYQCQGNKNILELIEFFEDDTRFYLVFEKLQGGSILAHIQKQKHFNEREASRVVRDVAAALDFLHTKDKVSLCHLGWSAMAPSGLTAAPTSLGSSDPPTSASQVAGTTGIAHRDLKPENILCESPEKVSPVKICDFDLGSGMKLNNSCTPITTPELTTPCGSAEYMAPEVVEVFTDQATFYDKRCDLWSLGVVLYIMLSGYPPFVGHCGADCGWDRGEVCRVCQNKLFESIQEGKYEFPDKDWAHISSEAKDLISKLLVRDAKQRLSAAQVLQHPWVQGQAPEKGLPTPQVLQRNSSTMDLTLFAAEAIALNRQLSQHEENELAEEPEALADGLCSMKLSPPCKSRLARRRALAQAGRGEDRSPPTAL
Experimental: (§2) A HTRF kinase assay kit (Cisbio, catalog number 62ST1PEB) was used to determine the MNK inhibitory activity of the compounds. All kinase reactions were performed in the reaction buffer (provided in the kit). The final MNK1 reaction involved 3 ng/ul recombinant MNK1 (ThermoFisher, PV6023), 1 μM MNK substrate peptide STK1 (provided in the kit), 100 μM ATP, and different concentrations of the inhibitory compounds of interest. The final MNK2 reaction involved 1 ng/μl recombinant MNK2 (ThermoFisher, PV5607), 1 μM MNK substrate peptide STK1 (provided in the kit), 100 μM ATP, and different concentrations of the inhibitory compounds of interest. The final DMSO concentration in each of the reactions was 1%.
(§3) The kinase reaction was performed in a final volume of 10 μl in a 384-well white flat-bottomed polystyrene plate. The MNK1/2 enzyme was pre-incubated with the compound and substrate peptide for 5 minutes, and then ATP was added thereto. After addition of ATP, the kinase reaction was incubated at 25° C. for 120 minutes or 60 minutes. The reaction was subsequently terminated by adding 5 μl of EU3+ substrate antibody detection reagent and 5 μl of XL665 detection reagent, and incubating for another 60 minutes. The luminescent signal was detected with an EnVision microplate reader counter (Perkin Elmer), and the signal from 10-point dilution series of the compounds was used to calculate the compound concentration (IC50) required to achieve 50% inhibition of enzyme activity.
(§4) In this respect, IC50 values which are less than 0.01 μM were marked as “+++”, which are from 0.01 to 0.1 μM were marked as “++”, and which are greater than 0.1 and up to 10.0 μM were marked as “+”, and NA meant “not detected”.

[5] = test system: Tim-3; assay: Expression of immune checkpoint Tim-3 on cell surface of PHA-activated PBMC (flow cytometry); type: cell-based, human; conditions: 5 μg/ml PHA, 0.01-10 μM, 48 hours
Experimental: as §1

[6] = test system: PD-1; assay: Expression of immune checkpoint PD-1 on cell surface of PHA-activated PBMC (flow cytometry); type: cell-based, human; conditions: 5 μg/ml PHA, 0.01-10 μM, 48 hours
Experimental: as §1

[7] = target: MNK2 (Homo sapiens, UniProt Q9HBH9); assay: MNK biological enzyme assay (HTRF kinase assay), MNK2; type: biochemical; design: purchased ThermoFisher PV5607; conditions: 1 ng/μl MNK2, 1 μM STK1 peptide, 100 μM ATP
Sequence of MNK2 (Q9HBH9 whole entry): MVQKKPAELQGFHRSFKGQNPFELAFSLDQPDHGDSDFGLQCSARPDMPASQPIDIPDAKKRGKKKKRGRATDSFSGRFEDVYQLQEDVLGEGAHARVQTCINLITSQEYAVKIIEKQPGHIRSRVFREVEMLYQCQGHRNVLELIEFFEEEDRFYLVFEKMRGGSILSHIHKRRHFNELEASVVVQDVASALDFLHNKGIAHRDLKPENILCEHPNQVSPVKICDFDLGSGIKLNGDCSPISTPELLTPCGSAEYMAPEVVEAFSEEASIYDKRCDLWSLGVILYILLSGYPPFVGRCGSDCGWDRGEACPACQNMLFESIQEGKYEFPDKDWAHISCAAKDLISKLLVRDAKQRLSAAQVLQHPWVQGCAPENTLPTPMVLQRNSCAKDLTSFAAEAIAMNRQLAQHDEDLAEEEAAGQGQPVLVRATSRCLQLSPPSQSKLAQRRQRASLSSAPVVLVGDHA
Experimental: as §2, §3, §4

[8] = test system: IL-10; assay: Secretion level of IL-10 in PHA-activated PBMC culture supernatants; type: cell-based, human; conditions: 5 μg/ml PHA, 0.01-10 μM, 48 hours
Experimental: as §1

[9] = test system: Phosphorylated eIF4E; assay: Intracellular peIF4E signaling assay; type: cell-based; conditions: 2 h; two hours incubation at 37° C.; read-out: peIF4E signaling cell assay IC50
Experimental: Phosphorylated eIF4E was determined using CisBio peIF4E assay kit (CisBio, catalog number 64EF4PEG). The cells were plated in a 96-well cell culture plate in a volume of 90 μL, and the number of cells per well was 5*10^4. The compounds (10×) were subjected to 3-fold serial dilution, added to the cell plate in a volume of 10 μL with the final DMSO concentration being 1%, and incubated at 37° C. for two hours. The cell plate was centrifuged at 300 g for 5 minutes, and the cell supernatant was carefully removed. The cell plate was immediately added with 50 μL of cell lysis buffer […] and incubated at 25° C. with shaking for at least 30 minutes. After homogenization by pipetting, 16 μL of cell lysate was transferred from the 96-well cell culture plate to a 384-well small-volume microwell plate. According to the kit instruction, an antibody mixture solution was prepared with a detection buffer, and was added in a volume of 4 μL to the 384-well small-volume microwell plate containing the cell lysate. The plate was covered with a plate sealer, incubated overnight at 25° C., and was read for fluorescence emission at two different wavelengths (665 nm and 615 nm) on the EnVision microplate reader counter. The emission ratio was imported into a GraphPadPrism software to fit the compound concentration (IC50) required for 50% inhibition of enzyme activity.
In this respect, IC50 values which are less than 0.05 μM were marked as “+++”, which are from 0.05 to 1.0 μM were marked as “++”, and which are greater than 1.0 and up to 100 μM were marked as “+”, and NA meant “not detected”.

[10] = Pharmacokinetic study in rats; type: in vivo; conditions: male, SD, plasma, rat
Experimental: In the examples, rat pharmacokinetic tests were performed for compounds 2 and 26 to illustrate their pharmacokinetic properties in rats.
Formulation of Liquors of Compound 2: […]
Experimental Method for Pharmacokinetic Study in Rats
(§5) Six SD rats, male, weighing 180-220 g, fasting for 12 hours, were randomly divided into 2 groups, 3 in each group. The animals in group A were intragastrically administrated with the compound liquor at a dose of 10 mg/kg; the animals in group B were intravenously administrated with the compound liquor via tails at a dose of 3 mg/kg. Blank blood was harvested before administration; about 100 μL of venous blood was harvested at different time points after administration, placed in a test tube added with heparin and centrifuged, and about 50 μL of blood plasma was collected and stored at −20° C. for testing.
Formulation of Liquors of Compound 26: […]
Formulation of solution for intravenous administration: compound 26 was dissolved in a solution of 5% DMSO+10% Solutol HS15+85% (20% HP-(3-CD physiological saline).
Formulation of suspension for intragastric administration: compound 26 was dissolved in a solution of 5% DMSO+10% Solutol HS15+85% (20% HP-(3-CD physiological saline).
Administration dosage of compound 26: 1 mg/kg for intravenous injection, 3 mg/kg for intragastric administration.
as §5, with “of 3” for “of 10”, “of 1” for “of 3”

SMILES	inhibition of secretion of IL-6 [1]	inhibition of secretion of TNF-α [2]	inhibition of Lag-3 expression [3]	IC50 [4] [nM]	inhibition of Tim-3 expression [5]	inhibition of PD-1 expression [6]	IC50 [7] [nM]	inhibition of secretion of IL-10 [8]	IC50 [9] [nM]	AUC(0-inf) ([10]; iv, 1 mg/kg) [ng·h/mL]	AUC(0-t) ([10]; iv, 1 mg/kg) [ng·h/mL]	clearance ([10]; iv, 1 mg/kg) [mL/min/kg]	half-life ([10]; iv, 1 mg/kg) [min]	Vd ([10]; iv, i.v., 1 mg/kg, read-out: Vz) [L/kg]	bioavailability ([10]; oral, p.o. 3 mg/kg vs i.v. 1 mg/kg) [%]	AUC(0-inf) ([10]; po, 3 mg/kg) [ng·h/mL]	AUC(0-t) ([10]; po, 3 mg/kg) [ng·h/mL]	Cmax ([10]; po, 3 mg/kg) [ng/mL]	Tmax ([10]; po, 3 mg/kg) [h]	half-life ([10]; po, 3 mg/kg) [min]
CC(=O)Nc1cc2c(cn1)Cc1c(C)c3n(c(=O)c1N2)C1(CCCCC1)NC3=O [Compound 21, 12(N-methyl-1,5-2,5,6,11-tetrahydro-1H-spiro[cyclohexane-1-imidazo[1,5-6]pyrido[3,4-b]naphthyridine1.6][8]′-yl)acetamide]	significantly inhibited	significantly inhibited	significantly inhibited	< 10	significantly inhibited	significantly inhibited	< 10	significantly inhibited	–	–	–	–	–	–	–	–	–	–	–	–
CCC(=O)Nc1cc2c(cn1)Cc1c(C)c3n(c(=O)c1N2)C1(CCCCC1)NC3=O [Compound 25]	–	–	–	10 to 100	–	–	< 10	–	< 50	–	–	–	–	–	–	–	–	–	–	–
Cc1c2c(c(=O)n3c1C(=O)NC31CCCCC1)Nc1cc(NC(=O)C3CC3)ncc1C2 [Compound 26]	significantly inhibited	significantly inhibited	significantly inhibited	< 10	significantly inhibited	significantly inhibited	< 10	significantly inhibited	< 50	632	619	27.2	224	4.14	21.7	391	402	45.2	1.75	418
Cc1c2c(c(=O)n3c1C(=O)NC31CCCCC1)Nc1cc(NC(=O)C3CCC3)ncc1C2 [Compound 27]	–	–	–	10 to 100	–	–	< 10	–	< 50	–	–	–	–	–	–	–	–	–	–	–

From patent US12152030B2 (NOVOSTAR PHARMACEUTICALS, LTD., priority 2019, dated 2024)
